From PubChem BioAssay (NCI)
“And” between values parts separate entries of the source, which are not always exact repeats. Identical values can stand only once.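 Each compound was tested at five concentrations against cells in 96-well plates for 48 hours. The concentration for 50% growth inhibition is given as GI50. The concentration for full growth arrest is given as TGI.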

Assays:
Test in all cases: NCI anticancer screen, dose series, 48 h
OVCAR-8 ovarian = system: OVCAR-8 ovarian
UACC-62 melanoma = system: UACC-62 melanoma
SW-620 colon = system: SW-620 colon
HCC-2998 colon = system: HCC-2998 colon
HOP-62 NSCLC = system: HOP-62 NSCLC
NCI-H226 lung = system: NCI-H226 lung
MDA-MB-231 breast = system: MDA-MB-231 breast
SF-295 CNS = system: SF-295 CNS
HOP-92 NSCLC = system: HOP-92 NSCLC
KM12 colon = system: KM12 colon

SMILES	GI50 (OVCAR-8 ovarian)	TGI (OVCAR-8 ovarian)	GI50 (UACC-62 melanoma)	TGI (UACC-62 melanoma)	GI50 (SW-620 colon)	TGI (SW-620 colon)	GI50 (HCC-2998 colon)	TGI (HCC-2998 colon)	GI50 (HOP-62 NSCLC)	TGI (HOP-62 NSCLC)	GI50 (NCI-H226 lung)	TGI (NCI-H226 lung) [µM]	GI50 (MDA-MB-231 breast)	TGI (MDA-MB-231 breast)	GI50 (SF-295 CNS)	TGI (SF-295 CNS)	GI50 (HOP-92 NSCLC)	TGI (HOP-92 NSCLC)	GI50 (KM12 colon)	TGI (KM12 colon)
Cn1cc(-c2cnc3ccc4ccc(CS(=O)(=O)NCc5ccccn5)cc4c(=O)c3c2)cn1	18.8 µM	> 100 µM	12.5 µM	39.4 µM	15.6 µM	> 100 µM	13.4 µM	27.9 µM	17.6 µM	> 100 µM	14.8 µM	36	19.6 µM	> 68.4 µM	3.61 µM	> 100 µM	6.19 µM	> 77.3 µM	10.5 µM	52 µM
Cc1cc(Nc2ncnc3ccc(NC4=NC(C)(C)CO4)cc23)ccc1Oc1ccn2ncnc2c1	8.75 µM and > 10 µM	55.1 µM and > 10 µM	12.5 µM and > 10 µM	30.3 µM and > 10 µM	20.5 µM and > 10 µM	41.2 µM and > 10 µM	16.5 µM and > 10 µM	30.9 µM and > 10 µM	17.6 µM and > 10 µM	45.7 µM and > 10 µM	16.6 µM and > 10 µM	> 90.2	14.1 µM and > 10 µM	44.9 µM and > 10 µM	14.9 µM and > 10 µM	38.3 µM and > 10 µM	3.69 µM and 4.24 µM	26.9 µM and > 10 µM	15.6 µM and > 10 µM	32.1 µM and > 10 µM
C=C1C(=O)O[C@H]2[C@H]1CC/C(COC(=O)NCCc1c[nH]c3ccc(OC)cc13)=C\CC[C@@]1(C)O[C@@H]21	1.97 µM	5.23 µM	1.72 µM	3.77 µM	1.94 µM	5.27 µM	2.34 µM	5.64 µM	3.49 µM	15.7 µM	1.88 µM	3.61	1.97 µM	4.44 µM	10.3 µM	22.2 µM	1.19 µM	2.87 µM	6.49 µM	23.2 µM
O=C(Nc1ccccc1O)c1ccc(Oc2cccc(C(=O)Nc3ccccc3O)c2)cc1	2.03 µM	11.2 µM	1.22 µM	5.1 µM	3.42 µM	12.7 µM	3.62 µM	11.9 µM	2.24 µM	12.5 µM	2.06 µM	10.8	2.22 µM	11.8 µM	2.88 µM	9.85 µM	1.57 µM	6.07 µM	3.17 µM	11.9 µM
C=CCC1(O)c2cccc(NCCO)c2C(=O)c2c(NCCO)cccc21	> 100 µM	> 100 µM	> 100 µM	> 100 µM	> 100 µM	> 100 µM	> 100 µM	> 100 µM	> 100 µM	> 100 µM	> 100 µM	> 100	> 100 µM	> 100 µM	> 100 µM	> 100 µM	80.7 µM	> 100 µM	> 100 µM	> 100 µM
Cc1ccc(SC2=CC(=O)c3nc4ccccc4c4ccnc2c34)cc1	18 µM	41.2 µM	43.3 µM	> 100 µM	23.1 µM	47.9 µM	> 67.8 µM	> 100 µM	97.9 µM	> 100 µM	> 61.9 µM	> 100	23.4 µM	60 µM	> 100 µM	> 100 µM	20 µM	38.2 µM	20.9 µM	47.5 µM
O=C(O)c1cc(N=Cc2ccccc2O)cc(C(=O)O)c1	–	> 100 µM	–	> 100 µM	–	> 100 µM	–	> 100 µM	–	> 100 µM	–	> 100	–	> 100 µM	–	> 100 µM	–	> 100 µM	–	> 100 µM
COC(=O)C1(F)C(=O)NC(=O)NC1O (centres undefined)	–	> 100 µM	–	> 100 µM	–	> 100 µM	–	> 100 µM	–	> 100 µM	–	> 100	–	> 100 µM	–	> 100 µM	–	> 100 µM	–	> 100 µM
O=Nc1ccc2ccccc2c1O	2.67 µM	6.63 µM	2.23 µM	5.89 µM	2.88 µM	10.5 µM	14.7 µM	29.1 µM	–	–	12.4 µM	29.1	10 µM	25.1 µM	7.78 µM	25.4 µM	13.4 µM	27.3 µM	6.23 µM	19.2 µM
O=C(Cc1cccc(OC(F)(F)F)c1)Nc1ccc(CCCCc2nnc(NC(=O)Cc3ccccn3)s2)nn1	15.8 µM	54.8 µM	19.9 µM	> 100 µM	40.4 µM	> 100 µM	52.4 µM	> 100 µM	–	–	15.1 µM	54.1	29.8 µM	> 100 µM	11.5 µM	31.4 µM	6.19 µM	25.9 µM	14.1 µM	> 100 µM
CCN1c2ccccc2C(Cl)(c2ccc(N(C)C)cc2)c2ccccc21	–	–	11.6 µM	42.1 µM	2.9 µM	12.1 µM	10.9 µM	23.4 µM	4.27 µM	17.3 µM	14.6 µM	34.5	13.1 µM	37.5 µM	21.7 µM	73.8 µM	2.84 µM	17 µM	4.41 µM	15.6 µM
